According to patent publication US10577349B2 (Sanford Burnham Prebys Medical Discovery Institute, priority 2015, dated 2020):

What was measured:
A375 = assay: 48 h Cytotoxicity A375; format: cell-based; details: Homo sapiens, A-375
[1] = biological target: EmCV Cap-dependent translation; assay: In vitro translation assay, FF-EmCV-Ren construct, cap-dependent (FF luciferase); format: biochemical, rabbit reticulocyte lysates
From the text: (§1) The bicistronic dual-reporter constructs that contain the firefly luciferase (FF) sequence, followed by the (encephalomyocarditis virus) EmCV and Hepatitis C virus (HCV) IRES, respectively, and the Renilla reniformis (Ren) luciferase sequence, has been previously described (Bordeleau Me., et al. Functional characterization of IRESes by an inhibitor of the RNA helicase eIF4A. Nature chemical biology. 2006; 2:213-20). For measurement of translation from the FF-EmCV-Ren and FF-HCV-Ren constructs, rabbit reticulocyte lysates (RRL) (Life Technologies, Carlsbad, Calif., USA) and the Dual-Glo (Promega, Madison, Wis., USA) read-outs were chosen. Two μl rabbit reticulocyte lysates mixed with Translation Mix 20× (-Met) and Translation Mix 20× (-Leu) in a ratio of 1:1 were pre-incubated with test compounds in 1536-well plates for 1 h at room temperature. Then, translation was started by adding 0.1 μg RNA per well and incubated for 2 h at 30° C. After a short chill phase, 2.5 μl Dual-Glo reagent 1 was added to each well and incubated for 10 min before reading the FF luciferase activity with the ViewLux uHTS Microplate Imager (Perkin Elmer, Waltham, Mass., USA). Directly after, 2.5 μl Dual-Glo reagent 2 was dispensed to each well and incubated at room temperature for 10 min before reading the Ren luciferase activity on the ViewLux. To exclude the possibility that test compounds interfere with any of the luciferase activities, a counter assay was performed in which the compounds were added after the completion of the in vitro translation.

[2] = biological target: EmCV Cap-independent translation; assay: In vitro translation assay, FF-EmCV-Ren construct, cap-independent (Ren luciferase); format: biochemical, rabbit reticulocyte lysates
From the text: as §1

[3] = biological target: HCV cap-dependent translation; assay: In vitro translation assay, FF-HCV-Ren construct, cap-dependent (FF luciferase); format: biochemical, rabbit reticulocyte lysates
From the text: as §1

[4] = biological target: HCV cap-independent translation; assay: In vitro translation assay, FF-HCV-Ren construct, cap-independent (Ren luciferase); format: biochemical, rabbit reticulocyte lysates
From the text: as §1

SMILES | IC50 (A375) | IC50 [1] | IC50 [2] | IC50 [3] | IC50 [4]
O=C(/C(Br)=C/c1cncc(F)c1)c1c(-c2ccccc2)c2cc(Cl)ccc2[nH]c1=O (single isomer, unassigned) [Compound 110, 3-[(2Z)-2-bromo-3-(5-fluoro(3-pyridyl))prop-2-enoyl]-6-chloro-4-phenylhydroquinolin-2-one] | 2 to 10 µM | 2 to 10 µM | 2 to 10 µM | 2 to 10 µM | 2 to 10 µM
O=C(/C=C/c1nc2ccccc2[nH]1)c1c(-c2ccc(C(F)(F)F)cc2)c2cc(Cl)ccc2[nH]c1=O [Compound 1, 3-(3-1H-Benzoimidazol-2-yl-acryloyl)-6-chloro-4-(4-trifluoromethyl-phenyl)-1H-quinolin-2-one] | 2 to 10 µM | 2 to 10 µM | 2 to 10 µM | 2 to 10 µM | 2 to 10 µM
O=C(/C=C/c1nc2ccccc2[nH]1)c1c(-c2ccc(OC(F)(F)F)cc2)c2cc(Cl)ccc2[nH]c1=O [Compound 2, 3-(3-1H-Benzoimidazol-2-yl-acryloyl)-6-chloro-4-(4-trifluoromethoxy-phenyl)-1H-quinolin-2-one] | < 2 µM | 2 to 10 µM | 2 to 10 µM | 2 to 10 µM | 2 to 10 µM
COc1ccc(-c2c(C(=O)/C=C/c3nc4ccccc4[nH]3)c(=O)[nH]c3ccc(Cl)cc23)cc1 [Compound 3, 3-(3-1H-Benzoimidazol-2-yl-acryloyl)-6-chloro-4-(4-methoxy-phenyl)-1H-quinolin-2-one] | < 2 µM | 10 to 20 µM | > 20 µM | 10 to 20 µM | > 20 µM
Cc1ccc(-c2c(C(=O)/C=C/c3nc4ccccc4[nH]3)c(=O)[nH]c3ccc(Cl)cc23)cc1 [Compound 4, 3-(3-1H-Benzoimidazol-2-yl-acryloyl)-6-chloro-4-p-tolyl-1H-quinolin-2-one] | 2 to 10 µM | 2 to 10 µM | 2 to 10 µM | 2 to 10 µM | 2 to 10 µM
O=C(/C=C/c1nc2ccccc2[nH]1)c1c(-c2ccc(Cl)cc2)c2cc(Cl)ccc2[nH]c1=O [Compound 5, 3-(3-1H-Benzoimidazol-2-yl-acryloyl)-6-chloro-4-(4-chloro-phenyl)-1H-quinolin-2-one] | < 2 µM | 2 to 10 µM | 10 to 20 µM | 10 to 20 µM | 10 to 20 µM
O=C(/C=C/c1nc2ccccc2[nH]1)c1c(-c2cccnc2)c2cc(Cl)ccc2[nH]c1=O [Compound 6, 3-(3-1H-Benzoimidazol-2-yl-acryloyl)-6-chloro-4-pyridin-3-yl-1H-quinolin-2-one] | > 20 µM | 2 to 10 µM | 2 to 10 µM | 10 to 20 µM | 10 to 20 µM
O=C(/C=C/c1ccccc1)c1c(-c2cccnc2)c2cc(Cl)ccc2[nH]c1=O [Compound 7, 6-Chloro-3-(3-phenyl-acryloyl)-4-pyridin-3-yl-1H-quinolin-2-one] | 10 to 20 µM | 2 to 10 µM | 10 to 20 µM | 10 to 20 µM | 10 to 20 µM
O=C(/C=C/c1nc2ccccc2[nH]1)c1c(-c2ccccn2)c2cc(Cl)ccc2[nH]c1=O [Compound 8, 3-(3-1H-Benzoimidazol-2-yl-acryloyl)-6-chloro-4-pyridin-2-yl-1H-quinolin-2-one] | 10 to 20 µM | > 20 µM | > 20 µM | > 20 µM | > 20 µM
O=C(/C=C/c1nc2ccccc2[nH]1)c1c(-c2cccs2)c2cc(Cl)ccc2[nH]c1=O [Compound 9, 3-(3-1H-Benzoimidazol-2-yl-acryloyl)-6-chloro-4-thiophen-2-yl-1H-quinolin-2-one] | 2 to 10 µM | 2 to 10 µM | 2 to 10 µM | 10 to 20 µM | 10 to 20 µM
O=C(/C=C/c1ccccc1)c1c(-c2cccs2)c2cc(Cl)ccc2[nH]c1=O [Compound 10] | > 20 µM | 2 to 10 µM | 2 to 10 µM | 10 to 20 µM | 2 to 10 µM
O=C(/C=C/c1nc2ccccc2[nH]1)c1c(C2CCCCC2)c2cc(Cl)ccc2[nH]c1=O [Compound 11, (E)-3-(3-(1H-benzo[d]imidazol-2-yl)acryloyl)-6-chloro-4-cyclohexylquinolin-2(1H)-one] | < 2 µM | 2 to 10 µM | 2 to 10 µM | 2 to 10 µM | 2 to 10 µM
O=C(/C=C/c1nc2ccccc2[nH]1)c1c(-c2ccccc2)c2cc([N+](=O)[O-])ccc2[nH]c1=O [Compound 13, 3-(3-1H-Benzoimidazol-2-yl-acryloyl)-6-nitro-4-phenyl-1H-quinolin-2-one] | 2 to 10 µM | 2 to 10 µM | 2 to 10 µM | 10 to 20 µM | 2 to 10 µM
Nc1ccc2[nH]c(=O)c(C(=O)CCc3nc4ccccc4[nH]3)c(-c3ccccc3)c2c1 [Compound 14, 6-Amino-3-(3-1H-benzoimidazol-2-yl-propionyl)-4-phenyl-1H-quinolin-2-one] | > 20 µM | > 20 µM | > 20 µM | > 20 µM | > 20 µM
Nc1ccc2[nH]c(=O)c(C(=O)/C=C/c3nc4ccccc4[nH]3)c(-c3ccccc3)c2c1 [Compound 15, 6-Amino-3-(3-1H-benzoimidazol-2-yl-acryloyl)-4-phenyl-1H-quinolin-2-one] | > 20 µM | 10 to 20 µM | 10 to 20 µM | 10 to 20 µM | > 20 µM
O=C(/C=C/c1ccccc1)c1c(-c2ccccc2)c2cc([N+](=O)[O-])ccc2[nH]c1=O [Compound 16, 6-Nitro-4-phenyl-3-(3-phenyl-acryloyl)-1H-quinolin-2-one] | 2 to 10 µM | 2 to 10 µM | 2 to 10 µM | 10 to 20 µM | 2 to 10 µM
CN(C)c1ccc(/C=C/C(=O)c2c(-c3ccccc3)c3cc([N+](=O)[O-])ccc3[nH]c2=O)cc1 [Compound 17, 3-[3-(4-Dimethylamino-phenyl)-acryloyl]-6-nitro-4-phenyl-1H-quinolin-2-one] | > 20 µM | > 20 µM | > 20 µM | > 20 µM | > 20 µM
O=C(/C=C/c1nc2ccccc2[nH]1)c1c(-c2ccccc2)c2cc(C(F)(F)F)ccc2[nH]c1=O [Compound 19, 3-(3-1H-Benzoimidazol-2-yl-acryloyl)-4-phenyl-6-trifluoromethyl-1H-quinolin-2-one] | 2 to 10 µM | 2 to 10 µM | 2 to 10 µM | 10 to 20 µM | 10 to 20 µM
O=C(/C=C/c1nc2ccccc2[nH]1)c1c(-c2ccccc2)c2cc(F)ccc2[nH]c1=O [Compound 20, 3-(3-1H-Benzoimidazol-2-yl-acryoyl)-6-fluoro-4-phenyl-1H-quinolin-2-one] | < 2 µM | 10 to 20 µM | > 20 µM | 10 to 20 µM | > 20 µM
COc1ccc2[nH]c(=O)c(C(=O)/C=C/c3nc4ccccc4[nH]3)c(-c3ccccc3)c2c1 [Compound 21, 3-(3-1H-Benzoimidazol-2-yl-acryloyl)-6-methoxy-4-phenyl-1H-quinolin-2-one] | 2 to 10 µM | 10 to 20 µM | 10 to 20 µM | > 20 µM | 10 to 20 µM
O=C(/C=C/c1nc2ccccc2[nH]1)c1c(-c2ccccc2)c2ccncc2[nH]c1=O [Compound 22, 3-(3-1H-Benzoimidazol-2-yl-acryloyl)-4-phenyl-1H-[1,7]naphthyridin-2-one] | > 20 µM | 10 to 20 µM | 10 to 20 µM | 10 to 20 µM | 10 to 20 µM
O=C(/C=C/c1ccncc1)c1c(-c2ccccc2)c2ccncc2[nH]c1=O [Compound 23, 4-Phenyl-3-(3-pyridin-4-yl-acryloyl)-1H-[1,7]naphthyridin-2-one] | < 2 µM | > 20 µM | 10 to 20 µM | > 20 µM | > 20 µM
O=C(/C=C/c1nc2ccccc2[nH]1)c1c(-c2ccccc2)c2cnccc2[nH]c1=O [Compound 24, 3-(3-1H-Benzoimidazol-2-yl-acryloyl)-4-phenyl-1H-[1,6]naphthyridin-2-one] | < 2 µM | 2 to 10 µM | 2 to 10 µM | 10 to 20 µM | 10 to 20 µM
O=C(/C=C/c1nc2ccccc2[nH]1)c1c(-c2ccccc2)c2cccnc2[nH]c1=O [Compound 25, 3-(3-1H-Benzoimidazol-2-yl-acryloyl)-4-phenyl-1H-[1,8]naphthyridin-2-one] | 10 to 20 µM | 10 to 20 µM | 10 to 20 µM | 10 to 20 µM | > 20 µM
O=C(/C=C/c1ccsc1)c1c(-c2ccccc2)c2cc(Cl)ccc2[nH]c1=O [Compound 27, 6-Chloro-4-phenyl-3-(3-thiophen-3-yl-acryloyl)-1H-quinolin-2-one] | 2 to 10 µM | 2 to 10 µM | 2 to 10 µM | 2 to 10 µM | 2 to 10 µM
